Experimental data published in patent US20200270309A1, “MALEIMIDE GROUP-MODIFIED ANGIOGENESIS INHIBITOR HM-1 AND USE THEREOF” (NANJING ANJI BIOLOGICAL TECHNOLOGY CO., LTD, priority 2017, published 2020).
Peptide text beside a SMILES is read from it. * marks the point of attachment. X84 = O=C1C=CC(=O)N1c1ccccc1CCCCCCCCCCCCC(=O)*; X49 = O=C1C=CC(=O)N1c1ccccc1CCCCCC(=O)*; X79 = O=C1C=CC(=O)N1c1cccc(CCC(=O)*)c1

Legend:
[1] = tested on: collagen-induced arthritis; assay: Mouse collagen-induced arthritis (CIA) animal model; assay type: in vivo; settings: DBA/1 mice CIA model, dose 4.0 mg/kg, subcutaneous from day 30, n=10; for Clinical score: highest score 16
[2] = tested on: HUVECs; assay: Transwell migration inhibition on HUVECs; assay type: cell-based, human; settings: for Inhibition rate (%): HUVEC migration vs blank control; for Cell migration number (Mean ± SD): HUVECs, transwell, 24 h
[3] = Half-lives and pharmacokinetic parameters of polypeptides vs HM-1; settings: in vivo; for half-life: T1/2β (half-life)
[4] = tested on: adjuvant arthritis; assay: Rat adjuvant arthritis (AA) animal model; assay type: in vivo, SD rats; settings: 4.0 mg/kg; for Clinical score: intravenous in the tail once every five days from day 10, four paws scored 0-4, max 16, mean±SD; for Joint swelling degree / Left and right paw swelling degree: intravenous in the tail once every five days from day 10, mean±SD
[5] = tested on: splenic lymphocytes; assay: Proliferation of splenic lymphocytes in mice (ConA, MTT); assay type: cell-based; settings: ConA-stimulated mouse splenic lymphocytes, 48 h
Procedure, shortened: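 Mouse splenocytes (5×10^6 cells/mL, RPMI 1640 with 10% calf serum, red cells lysed) stimulated with ConA plus varying polypeptide concentrations, with blank, ConA-only and Dex groups, 48 h at 37° C. MTT added for 4 h, formazan dissolved in DMSO, OD read at 570 nm; five replicates.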

[6] = tested on: choroidal neovascularization; assay: Choroidal neovascularization in rats (laser photocoagulation, FFA); assay type: in vivo; settings: BN rats
Procedure: 6-8 weeks male BN rats were fully anesthetized by intraperitoneal injection of 846 compound anesthetic with a concentration of 0.5 mL/kg. Compound tropicamide eye drops were used once 5 min before laser photocoagulation to fully dilate the pupils of both eyes. The animals were fixed and subjected to krypton laser photocoagulation equidistantly around an optic disc with the aid of a −53.00D corneal contact lens at a distance of 2PD from the optic disc. A total of 8 photocoagulation spots were obtained. The laser wavelength was 647.1 nm, the power was 350 mW, and the diameter and time of the photocoagulation spots were 50 μm and 0.05 s respectively. Fundus photography was performed immediately after photocoagulation. FFA, histopathology and transmission electron microscopy were performed on the days 3, 7, 14, 21 and 28 after photocoagulation respectively.
Through fundus photography and FFA examination, it was confirmed that the fluorescein leakage of the photocoagulation spot reached its peak on day 21 after photocoagulation. At the same time, histopathological examination was carried out.
Rats with successful modeling were randomly grouped, with 5 rats in each group. The groups were marked as a negative control group and X1-X90 treatment groups respectively. The rats were injected with normal saline and X1-X90 (the doses of X1-X90 were each 0.05 μM) in the vitreous chamber once a day for 1 week. FFA examination was carried out 3 days, 7 days, 14 days and 28 days after administration.

[7] = tested on: carrageenan-induced toe swelling; assay: Carrageenan-induced toe swelling in rats; assay type: in vivo; settings: SD rats; for Swelling degree 1 h: 1 h after carrageenan; for Swelling degree 3 h: 3 h after carrageenan; for Swelling degree 5 h: 5 h after carrageenan; for Swelling degree 7 h: 7 h after carrageenan
Procedure, shortened: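 Rats dosed by injection once daily for 3 d, controls given equal-volume saline. Right hind paw volume measured by water displacement to a marked joint line; swelling degree (mL) is paw volume after carrageenan inflammation minus volume before.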

[8] = day 3 after administration, total light spot number was 297, 0.05 μM in the vitreous chamber once a day for 1 week
[9] = day 7 after administration, total light spot number was 186, 0.05 μM in the vitreous chamber once a day for 1 week
[10] = day 14 after administration, total light spot number was 137, 0.05 μM in the vitreous chamber once a day for 1 week
[11] = day 28 after administration, total light spot number was 69, 0.05 μM in the vitreous chamber once a day for 1 week

Row | SMILES | Joint swelling degree (mm) [1] [mm] | Left and right paw swelling degree (mm) [1] [mm] | Clinical score [1] | Inhibition rate (%) ([2]; dose 0.05 μM) | Inhibition rate (%) ([2]; dose 0.1 μM) | Inhibition rate (%) ([2]; dose 0.2 μM) | Cell migration number (Mean ± SD) ([2]; dose 0.05 μM) | Cell migration number (Mean ± SD) ([2]; dose 0.1 μM) | Cell migration number (Mean ± SD) ([2]; dose 0.2 μM) | AUC(0-inf) [3] [ng·h/mL] | MRT inf [3] [h] | clearance [3] [mL/min/kg] | half-life [3] [h] | Clinical score [4] | Joint swelling degree [4] [mm] | Left and right paw swelling degree [4] [mm] | A570 nm/A630 nm ([5]; polypeptide dose 0.05 μM) | Inhibition rate (%) ([5]; polypeptide dose 0.05 μM) | A570 nm/A630 nm ([5]; polypeptide dose 0.1 μM) | Inhibition rate (%) ([5]; polypeptide dose 0.1 μM) | other results
1 | C[C@H](NC(=O)CNC(=O)[C@H](CCCNC(=N)N)NC(=O)CCc1cccc(N2C(=O)C=CC2=O)c1)C(=O)N[C@@H](CC(=O)O)C(=O)N[C@@H](CCCNC(=N)N)C(=O)N[C@@H](C)C(=O)NCC(=O)NCC(=O)NCC(=O)NCC(=O)N[C@@H](CCCNC(=N)N)C(=O)NCC(=O)N[C@@H](CC(=O)O)C(=O)O [X26] (X79-RGADRAGGGGRGD-OH) | 0.71 ± 0.14 | 0.84 ± 0.12 | 9.07 ± 1.32 | 46.81 | 48.98 | 53.86 | 570.08 ± 49.26 | 546.86 ± 60.43 | 494.57 ± 48.88 | 34600 ± 8340 | 62 ± 9.63 | 0.482 | 42.95 ± 0.36 | 5.65 ± 1.07 | 0.74 ± 0.18 | 3.81 ± 0.59 | 0.5714 ± 0.1002 | 15.46 | 0.5365 ± 0.0543 | 20.57 | A570 nm/A630 nm ([5]; polypeptide dose 0.2 μM): 0.4991 ± 0.0743; Inhibition rate (%) ([5]; polypeptide dose 0.2 μM): 26.10%; CNV Incidence (%) [6, 8]: 55.22%; Leakage Light spot number [6, 8]: 164; CNV Incidence (%) [6, 9]: 49.46%; Leakage Light spot number [6, 9]: 92; CNV Incidence (%) [6, 10]: 45.26%; Leakage Light spot number [6, 10]: 62; CNV Incidence (%) [6, 11]: 43.48%; Leakage Light spot number [6, 11]: 30; Swelling degree 1 h ([7]; 2.0 mg/kg once a day for 3 d): 0.28 ± 0.17 mg; Swelling degree 3 h ([7]; 2.0 mg/kg once a day for 3 d): 0.31 ± 0.18 mg; Swelling degree 5 h ([7]; 2.0 mg/kg once a day for 3 d): 0.42 ± 0.11 mg; Swelling degree 7 h ([7]; 2.0 mg/kg once a day for 3 d): 0.39 ± 0.12 mg; Swelling degree 1 h ([7]; 4.0 mg/kg once a day for 3 d): 0.25 ± 0.18 mg; Swelling degree 3 h ([7]; 4.0 mg/kg once a day for 3 d): 0.31 ± 0.13 mg; Swelling degree 5 h ([7]; 4.0 mg/kg once a day for 3 d): 0.40 ± 0.15 mg; Swelling degree 7 h ([7]; 4.0 mg/kg once a day for 3 d): 0.30 ± 0.16 mg
2 | C[C@H](NC(=O)CNC(=O)[C@H](CCCNC(=N)N)NC(=O)CCCCCc1ccccc1N1C(=O)C=CC1=O)C(=O)N[C@@H](CC(=O)O)C(=O)N[C@@H](CCCNC(=N)N)C(=O)N[C@@H](C)C(=O)NCC(=O)NCC(=O)NCC(=O)NCC(=O)N[C@@H](CCCNC(=N)N)C(=O)NCC(=O)N[C@@H](CC(=O)O)C(=O)O [X17] (X49-RGADRAGGGGRGD-OH) | 0.79 ± 0.12 | 0.78 ± 0.17 | 9.13 ± 1.31 | 48.96 | 54.89 | 57.52 | 547.07 ± 50.72 | 483.55 ± 66.46 | 455.35 ± 68.52 | 30000 ± 7060 | 53.8 ± 12.3 | 0.555 | 37.26 ± 0.29 | 5.82 ± 1.05 | 0.78 ± 0.15 | 3.84 ± 0.88 | 0.6219 ± 0.0629 | 7.92 | 0.5484 ± 0.1109 | 18.80 | A570 nm/A630 nm ([5]; polypeptide dose 0.2 μM): 0.5025 ± 0.0957; Inhibition rate (%) ([5]; polypeptide dose 0.2 μM): 25.60%; CNV Incidence (%) [6, 8]: 54.88%; Leakage Light spot number [6, 8]: 163; CNV Incidence (%) [6, 9]: 48.39%; Leakage Light spot number [6, 9]: 90; CNV Incidence (%) [6, 10]: 42.34%; Leakage Light spot number [6, 10]: 58; CNV Incidence (%) [6, 11]: 40.58%; Leakage Light spot number [6, 11]: 28; Swelling degree 1 h ([7]; 2.0 mg/kg once a day for 3 d): 0.27 ± 0.15 mg; Swelling degree 3 h ([7]; 2.0 mg/kg once a day for 3 d): 0.32 ± 0.14 mg; Swelling degree 5 h ([7]; 2.0 mg/kg once a day for 3 d): 0.38 ± 0.17 mg; Swelling degree 7 h ([7]; 2.0 mg/kg once a day for 3 d): 0.35 ± 0.19 mg; Swelling degree 1 h ([7]; 4.0 mg/kg once a day for 3 d): 0.24 ± 0.12 mg; Swelling degree 3 h ([7]; 4.0 mg/kg once a day for 3 d): 0.31 ± 0.19 mg; Swelling degree 5 h ([7]; 4.0 mg/kg once a day for 3 d): 0.37 ± 0.17 mg; Swelling degree 7 h ([7]; 4.0 mg/kg once a day for 3 d): 0.34 ± 0.15 mg
3 | C[C@H](NC(=O)CNC(=O)[C@H](CCCNC(=N)N)NC(=O)CCCCCCCCCCCCc1ccccc1N1C(=O)C=CC1=O)C(=O)N[C@@H](CC(=O)O)C(=O)N[C@@H](CCCNC(=N)N)C(=O)N[C@@H](C)C(=O)NCC(=O)NCC(=O)NCC(=O)NCC(=O)N[C@@H](CCCNC(=N)N)C(=O)NCC(=O)N[C@@H](CC(=O)O)C(=O)O [X24] (X84-RGADRAGGGGRGD-OH) | 0.82 ± 0.11 | 0.71 ± 0.12 | 8.94 ± 1.41 | 49.57 | 49.95 | 51.01 | 540.49 ± 60.98 | 536.51 ± 42.41 | 525.06 ± 53.33 | 29700 ± 7580 | 53.1 ± 13.5 | 0.562 | 36.77 ± 0.29 | 5.73 ± 1.15 | 0.76 ± 0.15 | 3.94 ± 0.70 | 0.5823 ± 0.0474 | 14.12 | 0.5615 ± 0.1155 | 16.86 | A570 nm/A630 nm ([5]; polypeptide dose 0.2 μM): 0.5142 ± 0.0636; Inhibition rate (%) ([5]; polypeptide dose 0.2 μM): 23.87%; CNV Incidence (%) [6, 8]: 54.21%; Leakage Light spot number [6, 8]: 161; CNV Incidence (%) [6, 9]: 49.46%; Leakage Light spot number [6, 9]: 92; CNV Incidence (%) [6, 10]: 45.99%; Leakage Light spot number [6, 10]: 63; CNV Incidence (%) [6, 11]: 44.93%; Leakage Light spot number [6, 11]: 31; Swelling degree 1 h ([7]; 2.0 mg/kg once a day for 3 d): 0.24 ± 0.16 mg; Swelling degree 3 h ([7]; 2.0 mg/kg once a day for 3 d): 0.34 ± 0.18 mg; Swelling degree 5 h ([7]; 2.0 mg/kg once a day for 3 d): 0.43 ± 0.12 mg; Swelling degree 7 h ([7]; 2.0 mg/kg once a day for 3 d): 0.38 ± 0.13 mg; Swelling degree 1 h ([7]; 4.0 mg/kg once a day for 3 d): 0.23 ± 0.17 mg; Swelling degree 3 h ([7]; 4.0 mg/kg once a day for 3 d): 0.35 ± 0.13 mg; Swelling degree 5 h ([7]; 4.0 mg/kg once a day for 3 d): 0.38 ± 0.16 mg; Swelling degree 7 h ([7]; 4.0 mg/kg once a day for 3 d): 0.32 ± 0.12 mg
